# Columns and labels:
# Conditions in all cases: incubation time: 72 h
# MDA-MB-231 = assay: normalised viability (% of control), CellTiter-Blue; higher = more viable cells (about 100 = DMSO control)
# Protocol: (§1)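 DSRT, CellTiter-Blue viability, 72 h incubation. Signal is normalised to DMSO and benzethonium chloride controls. Value is the normalised response at dose 3.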
# MDA-MB-453 [1] = assay: as above
# Protocol: as §1
# Hs578T [2] = assay: as above
# Protocol: as §1
# MDA-MB-468 [3] = assay: as above
# Protocol: as §1
# MDA-MB-436 = assay: as above
# Protocol: as §1
# HCC1937 [4] = assay: as above
# Protocol: as §1
# CAL-148 [5] = assay: as above
# Protocol: as §1
# CAL-120 [6] = assay: as above
# Protocol: as §1
# CAL-51 [7] = assay: as above
# Protocol: as §1
# BT-474 = assay: as above
# Protocol: as §1
# SK-BR-3 = assay: as above
# Protocol: as §1
# HCC1143 = assay: as above
# Protocol: as §1
# CAL-85-1 = assay: as above
# Protocol: as §1
# DU-4475 [8] = assay: as above
# Protocol: as §1
# MFM-223 = assay: as above
# Protocol: as §1
# HCC1599 = assay: as above
# Protocol: as §1
# HDQ-P1 = assay: as above
# Protocol: as §1
# BT-549 [9] = assay: as above
# Protocol: as §1
# MDA-MB-453 [10] = assay: drug sensitivity score (DSS), CellTiter-Blue viability (DSS (AUC-based score)); higher = stronger viability inhibition; extreme values may be limits of the assay
# In short: (§2)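 Drug sensitivity scores correspond to the area under the fitted dose-response curve. Breast cancer cell lines were incubated 72 h with compound at 5 or 9 concentrations in 384-well plates. Viability, read as CellTiter-Blue fluorescence at 560/590 nm, was normalised per plate to 0.1 % DMSO and a positive kill control.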
# Hs578T [11] = assay: as above
# In short: as §2
# MDA-MB-468 [12] = assay: as above
# In short: as §2
# HCC1937 [13] = assay: as above
# In short: as §2
# CAL-148 [14] = assay: as above
# In short: as §2
# CAL-120 [15] = assay: as above
# In short: as §2
# CAL-51 [16] = assay: as above
# In short: as §2
# DU-4475 [17] = assay: as above
# In short: as §2
# BT-549 [18] = assay: as above
# In short: as §2
Structure (SMILES),drug sensitivity score (MDA-MB-453 [10]),drug sensitivity score (Hs578T [11]),drug sensitivity score (MDA-MB-468 [12]),drug sensitivity score (HCC1937 [13]),drug sensitivity score (CAL-148 [14]),drug sensitivity score (CAL-120 [15]),drug sensitivity score (CAL-51 [16]),drug sensitivity score (DU-4475 [17]),drug sensitivity score (BT-549 [18]),normalised viability (MDA-MB-231; 100 nM),normalised viability (MDA-MB-453 [1]; 10 nM),normalised viability (Hs578T [2]; 100 nM),normalised viability (MDA-MB-468 [3]; 100 nM),normalised viability (MDA-MB-436; 100 nM),normalised viability (HCC1937 [4]; 100 nM),normalised viability (CAL-148 [5]; 10 nM),normalised viability (CAL-120 [6]; 100 nM),normalised viability (CAL-51 [7]; 10 nM),normalised viability (BT-474; 100 nM),normalised viability (SK-BR-3; 100 nM),further results
COc1cc2c(Oc3ccc(NC(=O)C4(C(=O)Nc5ccc(F)cc5)CC4)cc3F)ccnc2cc1OCCCN1CCOCC1 [Foretinib],0,0.649,0,0,2.11,1.14,4.07,1.75,0,,,,,,,,,,,,normalised viability (MDA-MB-231; 10 nM): 95.1%; normalised viability (MDA-MB-453 [1]; 1 nM): 91.6%; normalised viability (Hs578T [2]; 10 nM): 97.5%; normalised viability (MDA-MB-468 [3]; 10 nM): 134%; normalised viability (MDA-MB-436; 10 nM): 91.8%; normalised viability (HCC1937 [4]; 10 nM): 97.7%; normalised viability (CAL-148 [5]; 1 nM): 108%; normalised viability (CAL-120 [6]; 10 nM): 89%; normalised viability (CAL-51 [7]; 1 nM): 93.2%; normalised viability (BT-474; 10 nM): 109%; normalised viability (SK-BR-3; 10 nM): 78.8%; normalised viability (HCC1143; 10 nM): 99.9%; normalised viability (CAL-85-1; 1 nM): 100%; normalised viability (DU-4475 [8]; 1 nM): 96.6%; normalised viability (MFM-223; 10 nM): 80%; normalised viability (HCC1599; 10 nM): 95.3%; normalised viability (HDQ-P1; 1 nM): 92.4%; normalised viability (BT-549 [9]; 10 nM): 107%
CC(C)C(=O)Nc1ccc([N+](=O)[O-])c(C(F)(F)F)c1 [Flutamide],0,0,0,0,0,0,0,0,0,129%,98.8%,92%,96.9%,105%,108%,99.3%,101%,112%,115%,93.3%,normalised viability (HCC1143; 100 nM): 85.3%; normalised viability (CAL-85-1; 10 nM): 100%; normalised viability (DU-4475 [8]; 10 nM): 92.6%; normalised viability (MFM-223; 100 nM): 90%; normalised viability (HCC1599; 100 nM): 86.8%; normalised viability (HDQ-P1; 10 nM): 113%; normalised viability (BT-549 [9]; 100 nM): 85.8%
C[C@@H]1C[C@H]2[C@@H]3CCC4=CC(=O)C=C[C@]4(C)[C@@]3(F)[C@@H](O)C[C@]2(C)[C@@]1(O)C(=O)CO [Dexamethasone],7.98,0,0,0,0,0,0,0,0,121%,93.3%,97.2%,119%,94.9%,94%,97.7%,68.5%,94.9%,115%,70.3%,normalised viability (HCC1143; 100 nM): 83.4%; normalised viability (CAL-85-1; 10 nM): 110%; normalised viability (DU-4475 [8]; 10 nM): 97.2%; normalised viability (MFM-223; 100 nM): 93.4%; normalised viability (HCC1599; 100 nM): 117%; normalised viability (HDQ-P1; 10 nM): 113%; normalised viability (BT-549 [9]; 100 nM): 88.6%
O=NN(CCCl)C(=O)NC1CCCCC1 [Lomustine],0,0,0,0,0,0,0,0,0,100%,95.5%,94.6%,101%,102%,87.3%,93.9%,97%,115%,111%,97.5%,normalised viability (HCC1143; 100 nM): 93.2%; normalised viability (CAL-85-1; 10 nM): 93.8%; normalised viability (DU-4475 [8]; 10 nM): 109%; normalised viability (MFM-223; 100 nM): 89.5%; normalised viability (HCC1599; 100 nM): 101%; normalised viability (HDQ-P1; 10 nM): 113%; normalised viability (BT-549 [9]; 100 nM): 114%
NC(=O)c1cccc2cn(-c3ccc([C@@H]4CCCNC4)cc3)nc12 [MK-4827],0,0,0,8.54,2.86,0,5.3,6.73,0,97.5%,91.1%,92.1%,95%,95.1%,72.9%,98.5%,87.3%,110%,104%,78%,normalised viability (HCC1143; 100 nM): 87.2%; normalised viability (CAL-85-1; 10 nM): 101%; normalised viability (DU-4475 [8]; 10 nM): 90.9%; normalised viability (MFM-223; 100 nM): 90.6%; normalised viability (HCC1599; 100 nM): 93.8%; normalised viability (HDQ-P1; 10 nM): 105%; normalised viability (BT-549 [9]; 100 nM): 97.1%
NC(=O)NO [Hydroxyurea],0,0,0,2.94,0,0,0,0,0,,,,,,,,,,,,normalised viability (MDA-MB-231; 1000 nM): 98.2%; normalised viability (MDA-MB-453 [1]; 100 nM): 101%; normalised viability (Hs578T [2]; 1000 nM): 98.2%; normalised viability (MDA-MB-468 [3]; 1000 nM): 109%; normalised viability (MDA-MB-436; 1000 nM): 106%; normalised viability (HCC1937 [4]; 1000 nM): 91.4%; normalised viability (CAL-148 [5]; 100 nM): 96.8%; normalised viability (CAL-120 [6]; 1000 nM): 103%; normalised viability (CAL-51 [7]; 100 nM): 111%; normalised viability (BT-474; 1000 nM): 115%; normalised viability (SK-BR-3; 1000 nM): 101%; normalised viability (HCC1143; 1000 nM): 106%; normalised viability (CAL-85-1; 100 nM): 100%; normalised viability (DU-4475 [8]; 100 nM): 119%; normalised viability (MFM-223; 1000 nM): 96.9%; normalised viability (HCC1599; 1000 nM): 117%; normalised viability (HDQ-P1; 100 nM): 108%; normalised viability (BT-549 [9]; 1000 nM): 103%
CN1CCN(c2nc(C3=C(c4c[nH]c5ccccc45)C(=O)NC3=O)c3ccccc3n2)CC1 [Sotrastaurin],0,0,0,0,0,0,0,0,0,99.4%,93.4%,79.9%,96.3%,96.3%,96.3%,116%,122%,88.2%,108%,73%,normalised viability (HCC1143; 100 nM): 133%; normalised viability (CAL-85-1; 10 nM): 104%; normalised viability (DU-4475 [8]; 10 nM): 95%; normalised viability (MFM-223; 100 nM): 97.3%; normalised viability (HCC1599; 100 nM): 95%; normalised viability (HDQ-P1; 10 nM): 89.3%; normalised viability (BT-549 [9]; 100 nM): 86.4%
